What was measured:
[1] = molecular target: T1, Muscarinic acetylcholine receptor M5 (Homo sapiens) (UniProt P08912); settings: Compound concentration 10.0 uM
T1 sequence (whole entry): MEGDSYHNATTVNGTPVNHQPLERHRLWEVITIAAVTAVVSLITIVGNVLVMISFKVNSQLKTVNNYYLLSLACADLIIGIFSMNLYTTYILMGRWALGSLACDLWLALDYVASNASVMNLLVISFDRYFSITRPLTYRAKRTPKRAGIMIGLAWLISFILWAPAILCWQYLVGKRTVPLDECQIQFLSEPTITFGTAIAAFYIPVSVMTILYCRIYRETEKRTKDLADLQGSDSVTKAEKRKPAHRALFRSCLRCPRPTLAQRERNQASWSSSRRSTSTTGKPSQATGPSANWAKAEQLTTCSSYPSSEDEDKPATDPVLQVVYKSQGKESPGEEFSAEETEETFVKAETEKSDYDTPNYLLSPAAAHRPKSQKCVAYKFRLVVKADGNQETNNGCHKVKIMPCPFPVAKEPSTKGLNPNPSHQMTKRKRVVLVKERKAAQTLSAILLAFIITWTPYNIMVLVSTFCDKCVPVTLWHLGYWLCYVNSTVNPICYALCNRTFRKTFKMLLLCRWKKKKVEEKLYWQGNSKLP

[2] = molecular target: Activin receptor type-1-like (Homo sapiens) (UniProt P37023); settings: Compound concentration 1000.0 nM
Activin receptor type-1-like (Homo sapiens), sequence (P37023 whole entry): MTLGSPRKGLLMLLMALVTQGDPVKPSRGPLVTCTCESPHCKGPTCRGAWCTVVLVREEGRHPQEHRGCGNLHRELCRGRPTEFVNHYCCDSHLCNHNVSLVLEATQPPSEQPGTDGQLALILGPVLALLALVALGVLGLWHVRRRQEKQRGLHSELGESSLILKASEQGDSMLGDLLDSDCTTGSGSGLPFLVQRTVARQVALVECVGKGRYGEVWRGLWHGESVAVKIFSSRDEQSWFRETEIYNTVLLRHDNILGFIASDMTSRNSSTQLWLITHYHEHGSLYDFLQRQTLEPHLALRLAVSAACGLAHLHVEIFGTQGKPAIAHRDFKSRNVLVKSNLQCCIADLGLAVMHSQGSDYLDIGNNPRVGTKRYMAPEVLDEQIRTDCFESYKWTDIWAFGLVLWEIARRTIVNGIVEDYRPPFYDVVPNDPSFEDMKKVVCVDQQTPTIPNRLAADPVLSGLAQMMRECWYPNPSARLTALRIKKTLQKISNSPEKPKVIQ

[3] = molecular target: Serine/threonine-protein kinase TNNI3K (Homo sapiens) (UniProt Q59H18); settings: Compound concentration 1000.0 nM
[4] = molecular target: Serine/threonine-protein kinase WNK3 (Homo sapiens) (UniProt Q9BYP7); settings: Compound concentration 1000.0 nM
[5] = molecular target: Dual specificity protein kinase CLK2 (Homo sapiens) (UniProt P49760); settings: Compound concentration 1000.0 nM
[6] = molecular target: Phosphorylase b kinase gamma catalytic chain, skeletal muscle/heart isoform (Homo sapiens) (UniProt Q16816); settings: Compound concentration 1000.0 nM
[7] = molecular target: Tyrosine-protein kinase Fes/Fps (Homo sapiens) (UniProt P07332); settings: Compound concentration 1000.0 nM
[8] = molecular target: Ribosomal protein S6 kinase alpha-4 (Homo sapiens) (UniProt O75676); settings: Compound concentration 1000.0 nM
[9] = tested on: Proto-oncogene tyrosine-protein kinase receptor Ret (Homo sapiens), P07949 [V804L]; settings: Compound concentration 1000.0 nM
[10] = molecular target: D(3) dopamine receptor (Homo sapiens) (UniProt P35462); settings: Compound concentration 10.0 uM
[11] = tested on: Mast/stem cell growth factor receptor Kit (Homo sapiens), P10721 [V559D,T670I]; settings: Compound concentration 1000.0 nM
[12] = molecular target: Serine/threonine-protein kinase SIK2 (Homo sapiens) (UniProt Q9H0K1); settings: Compound concentration 1000.0 nM
[13] = molecular target: Death-associated protein kinase 3 (Homo sapiens) (UniProt O43293); settings: Compound concentration 1000.0 nM
Death-associated protein kinase 3 (Homo sapiens), sequence (O43293 whole entry, looked up, canonical isoform): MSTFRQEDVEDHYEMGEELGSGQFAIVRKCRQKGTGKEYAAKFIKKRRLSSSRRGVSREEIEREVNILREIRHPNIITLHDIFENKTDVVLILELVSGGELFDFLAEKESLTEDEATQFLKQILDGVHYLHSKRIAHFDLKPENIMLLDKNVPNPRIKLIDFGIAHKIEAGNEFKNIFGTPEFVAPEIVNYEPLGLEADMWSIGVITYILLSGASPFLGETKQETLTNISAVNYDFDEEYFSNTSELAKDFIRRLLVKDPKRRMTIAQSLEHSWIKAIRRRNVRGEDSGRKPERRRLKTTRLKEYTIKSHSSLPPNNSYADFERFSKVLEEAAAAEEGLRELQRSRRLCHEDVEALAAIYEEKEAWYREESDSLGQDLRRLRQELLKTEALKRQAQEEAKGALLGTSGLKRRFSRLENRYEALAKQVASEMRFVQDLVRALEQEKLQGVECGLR

[14] = molecular target: Casein kinase I isoform gamma-2 (Homo sapiens) (UniProt P78368); settings: Compound concentration 1000.0 nM
[15] = molecular target: 5-hydroxytryptamine receptor 6 (Homo sapiens) (UniProt P50406); settings: Compound concentration 10.0 uM
[16] = molecular target: Serine/threonine-protein kinase PAK 6 (Homo sapiens) (UniProt Q9NQU5); settings: Compound concentration 1000.0 nM
[17] = molecular target: Cyclin-dependent kinase 3 (Homo sapiens) (UniProt Q00526); settings: Compound concentration 1000.0 nM
[18] = molecular target: G protein-coupled receptor kinase 3 (Homo sapiens) (UniProt P35626); settings: Compound concentration 1000.0 nM
[19] = molecular target: Serine/threonine-protein kinase 3 (Homo sapiens) (UniProt Q13188); settings: Compound concentration 1000.0 nM
Serine/threonine-protein kinase 3 (Homo sapiens), sequence (Q13188 whole entry, canonical isoform): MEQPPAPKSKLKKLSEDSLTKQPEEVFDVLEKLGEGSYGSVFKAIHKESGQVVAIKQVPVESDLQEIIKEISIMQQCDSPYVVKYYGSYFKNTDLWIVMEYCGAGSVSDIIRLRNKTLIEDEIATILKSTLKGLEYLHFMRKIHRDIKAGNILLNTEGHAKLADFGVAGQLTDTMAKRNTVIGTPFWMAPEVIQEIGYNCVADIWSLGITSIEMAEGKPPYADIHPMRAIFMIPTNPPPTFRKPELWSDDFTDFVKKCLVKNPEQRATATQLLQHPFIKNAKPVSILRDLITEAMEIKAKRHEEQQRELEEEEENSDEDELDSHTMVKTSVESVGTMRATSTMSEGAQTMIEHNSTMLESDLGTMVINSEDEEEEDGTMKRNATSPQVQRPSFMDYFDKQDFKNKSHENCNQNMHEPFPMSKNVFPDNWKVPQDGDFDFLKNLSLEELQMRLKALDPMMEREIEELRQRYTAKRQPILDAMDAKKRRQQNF

[20] = molecular target: Casein kinase I isoform epsilon (Homo sapiens) (UniProt P49674); settings: Compound concentration 1000.0 nM
[21] = molecular target: cAMP-dependent protein kinase catalytic subunit beta (Homo sapiens) (UniProt P22694); settings: Compound concentration 1000.0 nM
[22] = molecular target: Rho-associated protein kinase 1 (Homo sapiens) (UniProt Q13464); settings: Compound concentration 1000.0 nM
[23] = molecular target: Tyrosine-protein kinase Yes (Homo sapiens) (UniProt P07947); settings: Compound concentration 1000.0 nM
[24] = molecular target: Myosin light chain kinase family member 4 (Homo sapiens) (UniProt Q86YV6); settings: Compound concentration 1000.0 nM
Myosin light chain kinase family member 4 (Homo sapiens), sequence (Q86YV6 whole entry): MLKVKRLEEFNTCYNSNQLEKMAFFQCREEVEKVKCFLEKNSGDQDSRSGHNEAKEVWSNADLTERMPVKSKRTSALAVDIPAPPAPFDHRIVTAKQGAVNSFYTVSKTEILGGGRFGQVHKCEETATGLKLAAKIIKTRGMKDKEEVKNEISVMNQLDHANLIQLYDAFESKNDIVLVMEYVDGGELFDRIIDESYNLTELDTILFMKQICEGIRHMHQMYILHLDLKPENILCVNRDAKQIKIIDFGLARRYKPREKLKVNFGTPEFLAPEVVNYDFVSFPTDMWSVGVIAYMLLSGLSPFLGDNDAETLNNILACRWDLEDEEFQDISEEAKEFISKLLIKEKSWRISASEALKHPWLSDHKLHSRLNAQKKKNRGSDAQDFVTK

[25] = molecular target: Serine/threonine-protein kinase N1 (Homo sapiens) (UniProt Q16512); settings: Compound concentration 1000.0 nM
[26] = molecular target: Protein-tyrosine kinase 2-beta (Homo sapiens) (UniProt Q14289); settings: Compound concentration 1000.0 nM
Protein-tyrosine kinase 2-beta (Homo sapiens), sequence (Q14289 whole entry, looked up): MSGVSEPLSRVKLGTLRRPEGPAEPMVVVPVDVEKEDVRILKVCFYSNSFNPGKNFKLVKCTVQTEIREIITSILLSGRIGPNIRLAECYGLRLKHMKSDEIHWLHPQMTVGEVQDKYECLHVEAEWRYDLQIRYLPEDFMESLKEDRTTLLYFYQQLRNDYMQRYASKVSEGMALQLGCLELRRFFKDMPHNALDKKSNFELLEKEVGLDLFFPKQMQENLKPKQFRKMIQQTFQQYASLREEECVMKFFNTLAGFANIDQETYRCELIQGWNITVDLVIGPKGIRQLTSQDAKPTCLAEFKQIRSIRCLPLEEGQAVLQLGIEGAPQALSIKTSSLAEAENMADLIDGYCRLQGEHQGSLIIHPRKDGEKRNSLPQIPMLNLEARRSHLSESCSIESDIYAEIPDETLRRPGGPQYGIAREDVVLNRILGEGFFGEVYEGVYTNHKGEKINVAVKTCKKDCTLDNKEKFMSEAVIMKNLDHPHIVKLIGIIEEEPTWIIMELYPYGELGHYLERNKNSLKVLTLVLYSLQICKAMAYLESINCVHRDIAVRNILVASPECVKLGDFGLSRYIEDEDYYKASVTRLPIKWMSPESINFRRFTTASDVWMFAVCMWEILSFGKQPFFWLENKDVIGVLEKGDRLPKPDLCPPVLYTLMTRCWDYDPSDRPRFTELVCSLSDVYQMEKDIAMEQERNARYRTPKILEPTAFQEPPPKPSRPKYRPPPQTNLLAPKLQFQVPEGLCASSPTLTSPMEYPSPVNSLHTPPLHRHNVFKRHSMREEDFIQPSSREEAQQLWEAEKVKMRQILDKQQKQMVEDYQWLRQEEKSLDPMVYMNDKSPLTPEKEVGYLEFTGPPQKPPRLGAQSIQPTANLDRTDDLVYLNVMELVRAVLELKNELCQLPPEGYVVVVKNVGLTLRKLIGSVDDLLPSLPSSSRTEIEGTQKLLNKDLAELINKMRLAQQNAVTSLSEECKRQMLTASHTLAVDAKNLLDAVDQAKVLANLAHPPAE

[27] = molecular target: Serine/threonine-protein kinase 17A (Homo sapiens) (UniProt Q9UEE5); settings: Compound concentration 1000.0 nM
[28] = molecular target: Tyrosine-protein kinase ABL1 (Homo sapiens) (UniProt P00519); settings: Compound concentration 1000.0 nM
[29] = molecular target: Vascular endothelial growth factor receptor 3 (Homo sapiens) (UniProt P35916); settings: Compound concentration 1000.0 nM
[30] = tested on: ALK tyrosine kinase receptor (Homo sapiens), Q9UM73 [L1196M]; settings: Compound concentration 1000.0 nM
ALK tyrosine kinase receptor (Homo sapiens), Q9UM73 [L1196M], sequence (Q9UM73 whole entry L1196M, looked up): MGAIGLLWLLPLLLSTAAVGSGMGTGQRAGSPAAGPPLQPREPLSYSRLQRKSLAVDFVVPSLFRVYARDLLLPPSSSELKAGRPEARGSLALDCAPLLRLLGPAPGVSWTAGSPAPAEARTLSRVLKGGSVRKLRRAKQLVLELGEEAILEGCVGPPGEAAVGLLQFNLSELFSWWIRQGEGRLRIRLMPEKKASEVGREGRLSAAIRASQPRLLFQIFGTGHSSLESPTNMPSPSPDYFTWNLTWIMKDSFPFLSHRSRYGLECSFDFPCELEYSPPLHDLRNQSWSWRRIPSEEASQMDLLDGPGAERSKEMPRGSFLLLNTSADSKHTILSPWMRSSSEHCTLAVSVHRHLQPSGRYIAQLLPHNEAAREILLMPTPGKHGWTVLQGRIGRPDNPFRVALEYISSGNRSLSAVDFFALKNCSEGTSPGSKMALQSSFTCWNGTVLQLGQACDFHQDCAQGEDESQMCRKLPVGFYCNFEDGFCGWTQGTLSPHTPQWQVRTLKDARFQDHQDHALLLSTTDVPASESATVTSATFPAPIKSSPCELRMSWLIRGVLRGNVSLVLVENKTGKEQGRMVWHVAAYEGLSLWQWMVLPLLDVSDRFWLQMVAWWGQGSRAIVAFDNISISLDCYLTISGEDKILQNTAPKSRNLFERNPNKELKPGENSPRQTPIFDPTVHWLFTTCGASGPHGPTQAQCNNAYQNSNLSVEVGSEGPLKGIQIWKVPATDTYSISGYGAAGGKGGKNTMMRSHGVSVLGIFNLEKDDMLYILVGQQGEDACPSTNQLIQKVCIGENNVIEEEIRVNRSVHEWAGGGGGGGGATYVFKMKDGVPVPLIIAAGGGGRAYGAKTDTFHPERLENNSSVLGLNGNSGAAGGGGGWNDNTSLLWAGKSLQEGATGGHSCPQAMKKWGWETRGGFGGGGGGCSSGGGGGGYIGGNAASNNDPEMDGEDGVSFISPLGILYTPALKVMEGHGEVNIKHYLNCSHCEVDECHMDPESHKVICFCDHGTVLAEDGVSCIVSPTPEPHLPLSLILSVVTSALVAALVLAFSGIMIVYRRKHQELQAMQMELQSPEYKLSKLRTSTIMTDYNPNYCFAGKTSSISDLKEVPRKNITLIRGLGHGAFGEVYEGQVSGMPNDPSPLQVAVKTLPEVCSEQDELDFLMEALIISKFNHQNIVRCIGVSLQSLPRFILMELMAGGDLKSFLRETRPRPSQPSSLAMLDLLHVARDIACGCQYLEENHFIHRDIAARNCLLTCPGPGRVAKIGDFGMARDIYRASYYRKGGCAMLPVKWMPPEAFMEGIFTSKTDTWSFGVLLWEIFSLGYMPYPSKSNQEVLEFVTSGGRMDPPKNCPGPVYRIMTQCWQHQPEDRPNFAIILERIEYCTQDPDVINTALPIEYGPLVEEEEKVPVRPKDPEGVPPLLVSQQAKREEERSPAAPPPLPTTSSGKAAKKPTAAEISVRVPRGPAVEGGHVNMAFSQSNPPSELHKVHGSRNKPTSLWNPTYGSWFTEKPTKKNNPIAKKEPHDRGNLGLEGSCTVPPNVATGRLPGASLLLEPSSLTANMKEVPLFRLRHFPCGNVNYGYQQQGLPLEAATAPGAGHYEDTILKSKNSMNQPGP

[31] = molecular target: Protein kinase C epsilon type (Homo sapiens) (UniProt Q02156); settings: Compound concentration 1000.0 nM
[32] = molecular target: Casein kinase I isoform alpha (Homo sapiens) (UniProt P48729); settings: Compound concentration 1000.0 nM
Casein kinase I isoform alpha (Homo sapiens), sequence (P48729 2-337 limits assumed): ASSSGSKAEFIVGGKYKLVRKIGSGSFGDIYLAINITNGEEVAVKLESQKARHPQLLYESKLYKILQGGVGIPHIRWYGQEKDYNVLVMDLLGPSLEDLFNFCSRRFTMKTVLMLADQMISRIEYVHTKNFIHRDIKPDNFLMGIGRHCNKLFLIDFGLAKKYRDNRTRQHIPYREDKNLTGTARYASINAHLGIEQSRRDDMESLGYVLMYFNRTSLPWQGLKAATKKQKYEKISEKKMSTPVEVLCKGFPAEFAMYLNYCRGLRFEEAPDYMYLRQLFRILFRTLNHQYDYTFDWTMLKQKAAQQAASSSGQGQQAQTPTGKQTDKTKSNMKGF

[33] = tested on: Fibroblast growth factor receptor 3 (Homo sapiens), P22607 [G697C]; settings: Compound concentration 1000.0 nM
[34] = molecular target: Serine/threonine-protein kinase Nek6 (Homo sapiens) (UniProt Q9HC98); settings: Compound concentration 1000.0 nM
[35] = molecular target: Mitogen-activated protein kinase kinase kinase 7 (Homo sapiens) (UniProt O43318); settings: Compound concentration 1000.0 nM
[36] = tested on: Receptor-type tyrosine-protein kinase FLT3 (Homo sapiens), P36888 [UNDEFINED MUTATION]; settings: Compound concentration 1000.0 nM
[37] = molecular target: Maternal embryonic leucine zipper kinase (Homo sapiens) (UniProt Q14680); settings: Compound concentration 1000.0 nM
[38] = molecular target: 5-hydroxytryptamine receptor 7 (Homo sapiens) (UniProt P34969); settings: Compound concentration 10.0 uM

| SMILES | inhibition [1] [%] | residual activity [2] [%] | residual activity [3] [%] | residual activity [4] [%] | residual activity [5] [%] | residual activity [6] [%] | residual activity [7] [%] | residual activity [8] [%] | residual activity [9] [%] | inhibition [10] [%] | residual activity [11] [%] | residual activity [12] [%] | residual activity [13] [%] | residual activity [14] [%] | inhibition [15] [%] | residual activity [16] [%] | residual activity [17] [%] | residual activity [18] [%] | residual activity [19] [%] | residual activity [20] [%] | also measured |
| --- | --- | --- | --- | --- | --- | --- | --- | --- | --- | --- | --- | --- | --- | --- | --- | --- | --- | --- | --- | --- | --- |
| Cn1cncc1[C@@](O)(COc1ccc(C#N)cc1-c1ccc(OC(F)(F)F)cc1)c1ccc(C#N)cc1 [A-108] | 1.23 | 100 | 100 | 100 | 90 | 95 | 100 | 93 | 89 | 18.1 | 82 | 100 | 100 | 64 | 14.2 | 100 | 100 | 100 | 95 | 100 | residual activity [21]: 100%; residual activity [22]: 100%; residual activity [23]: 100%; residual activity [24]: 97%; residual activity [25]: 100%; residual activity [26]: 100%; residual activity [27]: 100%; residual activity [28]: 95%; residual activity [29]: 90%; residual activity [30]: 100%; residual activity [31]: 100%; residual activity [32]: 78%; residual activity [33]: 97%; residual activity [34]: 95%; residual activity [35]: 67%; residual activity [36]: 100%; residual activity [37]: 79%; inhibition [38]: 15% |
| Cn1cncc1[C@](O)(COc1ccc(C#N)cc1-c1ccc(OC(F)(F)F)cc1)c1ccc(C#N)cc1 [ABT-100] | -4.82 | 100 | 82 | 100 | 87 | 63 | 100 | 89 | 82 | -9.46 | 84 | 95 | 88 | 78 | 6.74 | 98 | 71 | 48 | 77 | 77 | residual activity [21]: 93%; residual activity [22]: 100%; residual activity [23]: 94%; residual activity [24]: 93%; residual activity [25]: 100%; residual activity [26]: 62%; residual activity [27]: 100%; residual activity [28]: 100%; residual activity [29]: 77%; residual activity [30]: 100%; residual activity [31]: 79%; residual activity [32]: 100%; residual activity [33]: 60%; residual activity [34]: 95%; residual activity [35]: 100%; residual activity [36]: 98%; residual activity [37]: 74%; inhibition [38]: 9.15% |
